{"source": "paper PMC8861050", "about": "“Design, synthesis and evaluation of novel 2-oxoindoline-based acetohydrazides as antitumor agents” (Scientific Reports, 2022)", "key": {"[1]": {"test_system": "SW620, PC-3, and NCI-H23 cell lines", "assay": "Cytotoxicity, summary statements over three human cancer cell lines", "format": "cell-based", "details": "SW620, PC-3, NCI-H23", "source_text": "Three human cancer cell lines: colon cancer (SW620), prostate cancer (PC3), and lung cancer (NCI-H23) were used for sceening the cytotoxicity of the compounds. The cancer cells were purchased from American Type Culture Collection (Manassas, VA, USA). Other reagents/media for cell culture were obtained from GIBCO (Grand Island, New York, USA). The testing cancer cells were culture in Dulbecco’s Modified Eagle Medium until confluence. Then, they were trypsinized and suspended at the level of 3 × 10^4 cells/mL of cell culture medium. On day 0, cancer cells were seeded at a volume of 180 µL/well of 96-well plates and incubated for 24 h at 37 °C in a 5% CO2 incubator. On day 1, 20 µL of various concentrations of testing compounds were added to each well of the 96-well plates. Chemicals were dissolved in dimethyl sulfoxide (DMSO, stock) and diluted in culture medium (1% DMSO) before adding to the culture. After 48 h incubation, the sulforhodamine B assay was used for cell density determination with slight modifications[22]–[26]. The Probits were used for the calculation of IC50 values. The reported IC50 were the averages of three independent screening (SD ≤ 10%)[27].\nOverally, 5-fluorinated compounds (4i–p and 5d–f) were slightly more cytotoxic than non-fluorinated ones (4a–h, 5a–c). […]"}, "SW620 (colon cancer)": {"test_system": "SW620 (colon cancer)", "assay": "SRB cytotoxicity assay, SW620", "format": "cell-based", "details": "Homo sapiens, SW-620, 48 h incubation, mean ± SEM of 3 independent experiments", "summary_of_the_method": "(§1)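 Cells in DMEM were seeded at 3 × 10^4 cells/mL and preincubated 24 h at 37 °C, 5% CO2. Compounds were added in medium at 1% DMSO for 48 h. Cell density was read by sulforhodamine B staining, with IC50 by probit analysis as the mean of three independent screens.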"}, "[2]": {"test_system": "U937 human lymphoma cells", "assay": "Cell cycle analysis (PI, flow cytometry)", "format": "cell-based", "details": "24 h", "protocol": "U937 human lymphoma cells (5 × 10^5/mL per well) were plated in 6-well culture plates and allowed to grow for 24 h. In our first experiment, we examined the effects of 4f, 4h, 4n, 4o, 4p, and PAC-1 on cell cycles at 50 µM. In the second experiment, we examined the dose-dependent effect of 4o at 5, 10, and 30 µM and PAC-1 at 30 µM on cell cycles. The cells were treated with compounds for 24 h, and then harvested. The harvested cells were washed twice with ice-cold PBS, fixed in 75% ice-cold ethanol, and stained with propidium iodide (PI) in the presence of RNase at room temperature for 30 min. The stained cells were analyzed for DNA content using a FACScalibur flow cytometer (BD Biosciences, San Jose, CA, USA) and the data were processed using Cell Quest Pro software (BD Biosciences).\n(§2) Figure 3 Cell cycle analysis after treatment with some compounds. U937 human lymphoma cells were treated with compounds (50 µM) for 24 h. The harvested cells were stained with propidium iodide (PI) in the presence of RNase and then were analyzed for DNA content by using flow cytometry. Ten thousand cells were acquired (n = 3). UN untreated, VH vehicle (DMSO. 0.1%). Representative histograms (A) and bar graphs (B) are shown. p values were calculated using one-way ANOVA in GraphPad Software (San Diego, CA, USA). *p < 0.01 vs VH control.\nas §2, with “Figure 4” for “Figure 3”, “analysis under” for “analysis after”, “with different concentrations of compound 4o.” for “with some compounds.”, “with compound 4o at 5, 10 and 30 µM or PAC-1 (30” for “with compounds (50”"}, "NCI-H23 (lung cancer)": {"test_system": "NCI-H23 (lung cancer)", "assay": "SRB cytotoxicity assay, NCI-H23", "format": "cell-based", "details": "Homo sapiens, 48 h incubation, mean ± SEM of 3 independent experiments", "summary_of_the_method": "as §1"}, "[3]": {"assay": "Cytotoxicity on normal mesenchymal stem cells", "format": "cell-based", "details": "human bone marrow-derived mesenchymal stem cells; mean ± SEM; read-out: Cytotoxicity (IC50) MSCs"}}}
{"smiles": "COc1ccc(/C=N/NC(=O)CN2C(=O)Cc3cc(F)ccc32)c(O)c1", "note": "[Compound 4o, (E)-N'-(2-Hydroxy-4-methoxybenzylidene)-2-(5-fluoro-2-oxoindolin-1-yl)acetohydrazide]", "values": [{"measurement": "IC50 values relative to PAC-1", "setting": "[1]", "result": "three- to five-fold lower"}, {"measurement": "IC50", "setting": "SW620 (colon cancer)", "result": "1880 ± 20", "unit": "nM"}, {"measurement": "Effect on cell cycle, dose dependence", "setting": "[2]; 5 µM", "result": "inhibited cell cycles"}, {"measurement": "Effect on cell cycle distribution", "setting": "[2]; 50 µM", "result": "accumulated U937 cells in the S phase"}, {"measurement": "IC50", "setting": "NCI-H23 (lung cancer)", "result": "1000 ± 10", "unit": "nM"}, {"measurement": "IC50", "setting": "[3]", "result": "12800 ± 710", "unit": "nM"}, {"measurement": "melting point", "result": "186 to 187", "unit": "°C"}]}
